Paper PMC8071274 (International Journal of Molecular Sciences, 2021)
Entries after “also recorded” stand apart in the source; their conditions may differ. Where a SMILES comes first, the peptide text is derived from it. Where no end group is shown, it is not given here. The star is where a group is joined. For = O=C*

Columns and labels:
[1] = Time-dependent alteration of molecular forms of MCT-2(1–15) in mouse serum (RP-HPLC, MALDI-TOF-MS); format: in vitro ADME; conditions: 37 °C; for time of maximum amount of the degradation product in serum: RP-HPLC, MALDI-TOF-MS
Procedure: Male C57BL/6JJcl mice, 12–14 weeks of age, weighing 25–30 g, were anesthetized (50 mg/kg pentobarbital), and blood was collected from the caudal vena cava and stored overnight at 4 °C. The blood sample was centrifuged at 4 °C and 20,000× g for 20 min, and the supernatant was transferred to a new tube as mouse serum and stored at −80 °C. MCT-2(1–15) was incubated in mouse serum at a final concentration of 500 μM at 37 °C, and aliquots (100 μL) were collected from the incubation mixture after 0, 1, 2, 4, 24, and 48 h. These aliquots were mixed with TCA (final concentration: 3% w/v) and kept on ice for 30 min to precipitate denatured proteins. The samples were centrifuged at 4 °C and 13,000× g for 15 min, and the supernatants were analyzed by RP-HPLC on a C18 column (4.6 × 150 mm, Cosmosil; Nacalai Tesque, Inc.). RP-HPLC peaks that contained MCT-2(1–15) and its derivative peptides were analyzed by MALDI-TOF-MS to identify their molecular forms.

[2] = system: differentiated HL-60 cells; format: cell-based, human; conditions: 72 h
Procedure: HEK-293 cells (American Type Culture Collection, Manassas, VA, USA) were maintained in DMEM (Thermo Fisher Scientific, Waltham, MA, USA) containing 10% FBS (Thermo Fisher Scientific) in a humidified atmosphere at 5% CO2 and 37 °C. Human acute leukemia-derived HL-60 cells (RIKEN Cell Bank, Ibaraki, Japan) were cultured in RPMI-1640 medium (Thermo Fisher Scientific) containing 10% FBS in a humidified atmosphere at 5% CO2 and 37 °C. HL-60 cells were treated with 500 μM dibutyryl-cAMP (Sigma-Aldrich, St. Louis, MO, USA) for 72 h to differentiate the cells into neutrophilic/granulocytic cells as described elsewhere. The ability of MCT-2-related peptides to activate HL-60 cells differentiated into neutrophilic/granulocytic cells was evaluated by stimulation of β-hexosaminidase secretion from the cells. Briefly, differentiated HL-60 cells were washed 3 times with ice-cold HEPES-buffered Hank’s solution (HBHS; 10 mM HEPES, 136.9 mM NaCl, 5.4 mM KCl, 1.2 mM CaCl2, 0.44 mM KH2PO4, 0.49 mM MgCl2, 0.41 mM MgSO4, 0.34 mM Na2HPO4, 5.5 mM glucose, 4.2 mM NaHCO3, and 0.1% BSA, pH 7.4). The cells were resuspended in HBHS at a density of 5.6 × 10^6 cells/mL, and DNase I (Sigma-Aldrich) and cytochalasin B (Sigma-Aldrich) were each added at a final concentration of 5 μg/mL. The cell suspension in each tube (5.0 × 10^5 cells/90 μL) was preincubated at 37 °C for 10 min and stimulated with 10 μL synthetic peptide solution at 37 °C for 10 min. The inhibitory effects of inhibitors against FPR1 [CysH (Sigma-Aldrich)] and FPR2 [PBP10 (Tocris Bioscience, Bristol, UK)] on β-hexosaminidase release induced by MCT-2 and its derivatives were also evaluated in the differentiated HL-60 cells; each cell suspension prepared as above (90 μL) was transferred to a tube (5.0 × 10^5 cells/tube) with 5 μL inhibitor solution for FPR1 (CysH) or FPR2 (PBP10). Each tube was then preincubated at 37 °C for 10 min and stimulated with 5 μL synthetic peptide solution at 37 °C for 10 min. After stimulation, 200 μL ice-cold reaction quenching buffer (25 mM Tris, 123 mM NaCl, and 2.7 mM KCl, pH 7.4) was added to each cell suspension to stop the reaction. Thereafter, these tubes were centrifuged at 4 °C and 2300× g for 1 min, and each supernatant was transferred into a new tube. β-Hexosaminidase activity in the supernatant was measured as described previously. Briefly, 90 μL supernatant was transferred to each well of a 96-well microtiter plate, and 60 μL of a substrate solution for β-hexosaminidase [10 mM p-nitrophenyl N-acetyl-β-D-glucosaminide (Sigma-Aldrich), 40 mM citrate, and 70 mM NaHPO4, pH 4.5] was added to initiate the enzyme reaction. After incubation of the plate at 37 °C for 1 h, 100 μL of 400 mM glycine (pH 10.7) was added to stop the reaction. The absorbance at 415 nm for the resulting p-nitrophenol and at 490 nm for the reference was measured using a microtiter plate reader (Viento XS; BioTek Instruments, Winooski, VT, USA). The ability of each peptide to induce β-hexosaminidase release was expressed as a percentage of enzyme secretion promoted by 10 μM MCT-2(1–15) that induced the maximum response for the elucidation of full or partial agonists to the activity of MCT-2(1–15) (Figure 2 and Figure 4, Table 2) or a percentage of the total enzyme activity, which was the enzyme activity released after disruption of the cells with 0.05% Triton X-100 (Figure 3).

[3] = mouse serum; conditions: Male C57BL/6JJcl mice, 37 °C, up to 48 h
[4] = product formed from 500 μM MCT-2(1–15) in mouse serum
[5] = product formed from 500 μM MCT-2(1–15) in mouse serum, 4 h

Compound: CC[C@H](C)[C@H](NC(=O)[C@H](CCCCN)NC(=O)[C@H](CCCNC(=N)N)NC(=O)[C@H](CCSC)NC(=O)[C@@H]1CCCN1C(=O)[C@@H](NC(=O)[C@H](CCSC)NC=O)[C@@H](C)O)C(=O)N[C@@H](CC(N)=O)C(=O)N1CCC[C@H]1C(=O)N[C@@H](CC(C)C)C(=O)N[C@@H](CCSC)C(=O)O [MCT-2(1–11)] (For-MTPMRKINPLM-OH)
- time of first detection of the degradation product in serum [1, 4]: 1 h
- presence of the degradation product in serum at 4 h [1, 5]: not found
- time of maximum amount of the degradation product in serum [1, 4]: 1 h
- EC50 [2]: 0.547 ± 0.0939 µM

Compound: For-MTPMRKINPLMKLIN
- fragment found [3]: MCT-2(1–11), 1 h; also recorded: MCT-2(1–10), 1 h; also recorded: MCT-2(1–4), 1 h

Compound: CSCC[C@H](NC(=O)[C@@H]1CCCN1C(=O)[C@@H](NC(=O)[C@H](CCSC)NC=O)[C@@H](C)O)C(=O)O [MCT-2(1–4)] (For-MTPM-OH)
- time of first detection of the degradation product in serum [1, 4]: 1 h
- time the degradation product was present in serum [1, 4]: more than 48 h
- presence of the degradation product in serum at 48 h ([1]; product formed from 500 μM MCT-2(1–15) in mouse serum, 48 h): still present
- time of maximum amount of the degradation product in serum [1, 4]: 4 h
- EC50 [2]: 18 µM

Compound: CC[C@H](C)[C@H](NC(=O)[C@H](CC(C)C)NC(=O)[C@H](CCCCN)NC(=O)[C@H](CCSC)NC(=O)[C@H](CC(C)C)NC(=O)[C@@H]1CCCN1C(=O)[C@H](CC(N)=O)NC(=O)[C@@H](NC(=O)[C@H](CCCCN)NC(=O)[C@H](CCCNC(=N)N)NC(=O)[C@H](CCSC)NC(=O)[C@@H]1CCCN1C(=O)[C@@H](NC(=O)[C@H](CCSC)NC=O)[C@@H](C)O)[C@@H](C)CC)C(=O)N[C@@H](CC(N)=O)C(=O)O [MCT-2(1–15), Mitocryptide-2] (For-MTPMRKINPLMKLIN-OH)
- metabolised at 1 h, 500 μM ([1]; male, C57BL/6JJcl, mouse serum, 500 μM peptide, 1 h, TCA precipitation, RP-HPLC (214 nm), read-out: reduction of amount of peptide in serum at 1 h): ~50%
- metabolised at 2 h, 500 μM ([1]; male, C57BL/6JJcl, mouse serum, 500 μM peptide, 2 h, TCA precipitation, RP-HPLC (214 nm), read-out: reduction of amount of peptide in serum at 2 h): ~80%
- half-life at 500 μM ([1]; male, C57BL/6JJcl, mouse serum, 500 μM peptide, RP-HPLC (214 nm)): ~1 h
- peptide remaining in serum at 4 h ([1]; mouse serum, 500 μM peptide, 4 h, RP-HPLC (214 nm)): completely disappeared
- EC50 [2]: 0.02 ± 0.00339 µM

Compound: CC[C@H](C)[C@H](NC(=O)[C@H](CC(C)C)NC(=O)[C@H](CCCCN)NC(=O)[C@H](CCSC)NC(=O)[C@H](CC(C)C)NC(=O)[C@@H]1CCCN1C(=O)[C@H](CC(N)=O)NC(=O)[C@H](C)NC(=O)[C@H](CCCCN)NC(=O)[C@H](CCCNC(=N)N)NC(=O)[C@H](CCSC)NC(=O)[C@@H]1CCCN1C(=O)[C@@H](NC(=O)[C@H](CCSC)NC=O)[C@@H](C)O)C(=O)N[C@@H](CC(N)=O)C(=O)O [[Ala^7]MCT-2] (For-MTPMRKANPLMKLIN-OH)
- EC50 [2]: 0.0947 ± 0.00321 µM

Compound: CSCC[C@H](NC=O)C(=O)N[C@H](C(=O)N1CCC[C@H]1C(=O)N[C@@H](CCSC)C(=O)N[C@@H](CCCNC(=N)N)C(=O)O)[C@@H](C)O [MCT-2(1–5)] (For-MTPMR-OH)
- EC50 [2]: 26 µM

Compound: CSCC[C@H](NC=O)C(=O)N[C@H](C(=O)N1CCC[C@H]1C(=O)N[C@@H](CCSC)C(=O)N[C@@H](CCCNC(=N)N)C(=O)N[C@@H](CCCCN)C(=O)O)[C@@H](C)O [MCT-2(1–6)] (For-MTPMRK-OH)
- EC50 [2]: 203 µM

Compound: CC[C@H](C)[C@H](NC(=O)[C@H](CCCCN)NC(=O)[C@H](CCCNC(=N)N)NC(=O)[C@H](CCSC)NC(=O)[C@@H]1CCCN1C(=O)[C@@H](NC(=O)[C@H](CCSC)NC=O)[C@@H](C)O)C(=O)N[C@@H](CC(N)=O)C(=O)N1CCC[C@H]1C(=O)N[C@@H](CC(C)C)C(=O)N[C@@H](CCSC)C(=O)N[C@@H](CCCCN)C(=O)N[C@@H](CC(C)C)C(=O)O [MCT-2(1–13)] (For-MTPMRKINPLMKL-OH)
- EC50 [2]: 0.186 ± 0.0336 µM

Compound: CC[C@H](C)[C@H](NC(=O)[C@H](CC(C)C)NC(=O)[C@H](CCCCN)NC(=O)[C@H](CCSC)NC(=O)[C@H](C)NC(=O)[C@@H]1CCCN1C(=O)[C@H](CC(N)=O)NC(=O)[C@@H](NC(=O)[C@H](CCCCN)NC(=O)[C@H](CCCNC(=N)N)NC(=O)[C@H](CCSC)NC(=O)[C@@H]1CCCN1C(=O)[C@@H](NC(=O)[C@H](CCSC)NC=O)[C@@H](C)O)[C@@H](C)CC)C(=O)N[C@@H](CC(N)=O)C(=O)O [[Ala^10]MCT-2] (For-MTPMRKINPAMKLIN-OH)
- EC50 [2]: 0.073 ± 0.0133 µM

Compound: CC[C@H](C)[C@H](NC(=O)[C@H](CC(C)C)NC(=O)[C@H](CCCCN)NC(=O)[C@H](CCSC)NC(=O)[C@H](CC(C)C)NC(=O)[C@@H]1CCCN1C(=O)[C@H](CC(N)=O)NC(=O)[C@@H](NC(=O)[C@H](CCCCN)NC(=O)[C@H](CCCNC(=N)N)NC(=O)[C@H](CCSC)NC(=O)[C@H](C)NC(=O)[C@@H](NC(=O)[C@H](CCSC)NC=O)[C@@H](C)O)[C@@H](C)CC)C(=O)N[C@@H](CC(N)=O)C(=O)O [[Ala^3]MCT-2] (For-MTAMRKINPLMKLIN-OH)
- EC50 [2]: 0.0163 ± 0.00029 µM

Compound: CC[C@H](C)[C@H](NC(=O)[C@H](CCCCN)NC(=O)[C@H](CCCNC(=N)N)NC(=O)[C@H](CCSC)NC(=O)[C@@H]1CCCN1C(=O)[C@@H](NC(=O)[C@H](CCSC)NC=O)[C@@H](C)O)C(=O)N[C@@H](CC(N)=O)C(=O)N1CCC[C@H]1C(=O)N[C@@H](CC(C)C)C(=O)O [MCT-2(1–10)] (For-MTPMRKINPL-OH)
- time of first detection of the degradation product in serum [1, 4]: 1 h
- presence of the degradation product in serum at 4 h [1, 5]: not found
- time of maximum amount of the degradation product in serum [1, 4]: 2 h
- EC50 [2]: 1.8 ± 0.173 µM
